Legend:
IDO (SKOV-3 cells) = molecular target: T1, IDO (SKOV-3 cells) (Homo sapiens, UniProt P14902); test: IDO cell-based assay (SKOV-3, IFNγ-induced), kynurenine production; conditions: SKOV-3 ovary adenocarcinoma cells, IFNγ 500 ng/ml, 500 μM L-Trp, 48 h, kynurenine by absorbance at 490 nm
T1 construct: This assay utilised cancer cells which expressed either TDO or IDO; host or cells: SKOV-3 ovary adenocarcinoma cells, IFNγ-induced
From the text: (§1) Two different types of assay were employed: 1. A TDO and IDO biochemical coupled assay which utilised recombinantly produced and purified TDO and IDO enzymes in combination with the enzyme formamidase. This coupled enzyme system allowed conversion of N-formylkynurenine produced by TDO or IDO activity to kynurenine which was then quantified by fluorescence following addition of Erhlich's Reagent. 2. A cell-based assay for detecting the effect of test compounds on kynurenine production in two different cancer cell types. This assay utilised cancer cells which expressed either TDO or IDO and as such was used as a means of testing compound activity at these two enzymes in a cell-based context. The protocols for these are set out below.
(§2) A172 human glioblastoma (ATCC) were grown in DMEM+2 mM L-glutamine medium supplemented with 10% foetal bovine serum and SKOV-3 ovary adenocarcinoma (ATCC) cells were grown in McCoys 5A+L-glutamax medium supplemented with 15% foetal bovine serum. On the day of assay, cells were detached using trypsin-EDTA (0.25% v/v), re-suspended in assay media (RPMI 1640 phenol red free+L-glutamine supplemented with 10% dialysed foetal bovine serum). A172 cells were seeded at 30K cells per well and SKOV-3 cells at 40K cells per well into 96-well plates containing test samples/vehicle control together with 500 μM L-Trp. Cells were then incubated for 48 h at 37° C., 5% CO2. In SK-OV-3 cells, IFNγ was also added at 500 ng/ml for the 48 h incubation in order to induce expression of IDO. Plates were centrifuged and the supernatant was removed and incubated for 5 min in the presence of 1% Erhlich's reagent. Kynurenine levels were then quantified by measuring absorbance at 490 nm.

TDO (A172 cells) = molecular target: T2, TDO (A172 cells) (Homo sapiens, UniProt P48775); test: TDO cell-based assay (A172), kynurenine production; conditions: A172 human glioblastoma cells, 500 μM L-Trp, 48 h, kynurenine by absorbance at 490 nm
T2 construct: This assay utilised cancer cells which expressed either TDO or IDO; host or cells: A172 human glioblastoma cells
T2 sequence (P48775 whole entry): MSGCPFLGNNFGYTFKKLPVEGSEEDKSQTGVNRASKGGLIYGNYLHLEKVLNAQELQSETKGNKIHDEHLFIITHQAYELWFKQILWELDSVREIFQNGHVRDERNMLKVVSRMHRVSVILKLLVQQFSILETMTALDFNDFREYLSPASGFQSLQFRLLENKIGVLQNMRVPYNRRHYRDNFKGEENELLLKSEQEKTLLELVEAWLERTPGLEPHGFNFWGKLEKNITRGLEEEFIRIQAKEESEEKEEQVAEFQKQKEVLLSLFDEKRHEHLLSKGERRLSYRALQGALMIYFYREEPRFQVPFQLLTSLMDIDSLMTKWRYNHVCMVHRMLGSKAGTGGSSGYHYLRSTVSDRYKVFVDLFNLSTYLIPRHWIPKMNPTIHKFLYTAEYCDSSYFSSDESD
From the text: as §1, §2

T1 sequence (P14902 whole entry): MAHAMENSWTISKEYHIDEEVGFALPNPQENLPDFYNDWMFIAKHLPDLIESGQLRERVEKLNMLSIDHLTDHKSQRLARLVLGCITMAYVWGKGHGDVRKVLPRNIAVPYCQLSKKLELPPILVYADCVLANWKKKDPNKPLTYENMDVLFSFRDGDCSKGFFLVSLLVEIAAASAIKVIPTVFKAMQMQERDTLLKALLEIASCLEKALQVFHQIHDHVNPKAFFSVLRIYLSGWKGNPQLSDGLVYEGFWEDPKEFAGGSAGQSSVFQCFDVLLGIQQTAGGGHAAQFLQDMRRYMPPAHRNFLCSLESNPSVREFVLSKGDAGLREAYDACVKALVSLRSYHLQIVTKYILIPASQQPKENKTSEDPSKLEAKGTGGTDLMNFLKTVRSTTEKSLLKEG

| SMILES | IDO cellular assay (SKOV3) pIC50 (IDO (SKOV-3 cells)) | TDO cellular assay (A172) pIC50 (TDO (A172 cells)) |
| --- | --- | --- |
| Cc1nc(C(C)NC(=O)c2cc3cc(Cl)ccc3[nH]2)no1 (stereo not drawn) [Compound 212] | ++ (++ = pIC50 5.00-<5.50) | + (+ = pIC50 4.50-<5.00) |
| O=C(NC1(c2ccccc2)CC1)c1cc2c(F)c(Cl)ccc2[nH]1 [Compound 194] | +++ (+++ = pIC50 ≥5.50) | − (− = pIC50 <4.50) |
| COc1ccc2cc(C(=O)NC3(c4cnn(C)c4)CC3)[nH]c2c1 [Compound 167] | ++ (++ = pIC50 5.00-<5.50) | − (− = pIC50 <4.50) |
| CC(NC(=O)c1cc2cc(OC(F)(F)F)ccc2[nH]1)c1cnn(C)c1 (stereo not drawn) [Compound 249] | +++ (+++ = pIC50 ≥5.50) | + (+ = pIC50 4.50-<5.00) |
| Cc1noc(C(C)NC(=O)c2cc3cc(Cl)ccc3[nH]2)n1 (stereo not drawn) [Compound 199] | +++ (+++ = pIC50 ≥5.50) | − (− = pIC50 <4.50) |
| COc1ccc2[nH]c(C(=O)NC(C)c3cnn(C)c3)cc2c1 (stereo not drawn) [Compound 186] | +++ (+++ = pIC50 ≥5.50) | − (− = pIC50 <4.50) |
| Cc1ccc2cc(C(=O)NC(C)c3ccccc3)[nH]c2c1 (stereo not drawn) [Compound 78] | ++ (++ = pIC50 5.00-<5.50) | + (+ = pIC50 4.50-<5.00) |
| Cn1cc(C2(NC(=O)c3cc4cc(Br)ccc4[nH]3)CC2)cn1 [Compound 263] | +++ (+++ = pIC50 ≥5.50) | − (− = pIC50 <4.50) |
| COc1ccc2cc(C(=O)Nc3cccc4ncccc34)[nH]c2c1 [Compound 7] | +++ (+++ = pIC50 ≥5.50) | − (− = pIC50 <4.50) |
| CC(NC(=O)c1cc2cc(F)ccc2[nH]1)c1cccnc1 (stereo not drawn) [Compound 54] | + (+ = pIC50 4.50-<5.00) | − (− = pIC50 <4.50) |
| Cc1ccc2[nH]c(C(=O)NC(C)c3cccc(F)c3)cc2c1 (stereo not drawn) [Compound 15] | +++ (+++ = pIC50 ≥5.50) | ++ (++ = pIC50 5.00-<5.50) |
| O=C(NC1(c2ccccc2)COC1)c1cc2ccc(C(F)F)cc2[nH]1 [Compound 218] | + (+ = pIC50 4.50-<5.00) | − (− = pIC50 <4.50) |
| O=C(NC1(c2ccn(-c3ccccc3)n2)CC1)c1cc2cc(Cl)ccc2[nH]1 [Compound 143] | +++ (+++ = pIC50 ≥5.50) | + (+ = pIC50 4.50-<5.00) |
| C[C@@H](NC(=O)c1cc2cc(Br)ccc2[nH]1)c1ccccc1 [Compound 252] | +++ (+++ = pIC50 ≥5.50) | − (− = pIC50 <4.50) |
| C[C@H](c1ccccc1)N(C)C(=O)c1cc2cc(F)ccc2[nH]1 [Compound 39] | ++ (++ = pIC50 5.00-<5.50) | − (− = pIC50 <4.50) |
| O=C(NCC1CCCN(C(=O)C2CC2)C1)c1cc2cc(Cl)ccc2[nH]1 (stereo not drawn) [Compound 108] | ++ (++ = pIC50 5.00-<5.50) | − (− = pIC50 <4.50) |
| CC(NC(=O)c1cc2ccc(C#N)cc2[nH]1)c1ccccc1 (stereo not drawn) [Compound 85] | ++ (++ = pIC50 5.00-<5.50) | ++ (++ = pIC50 5.00-<5.50) |

| SMILES | IDO cellular assay (SKOV3) pIC50 (IDO (SKOV-3 cells)) | TDO cellular assay (A172) pIC50 (TDO (A172 cells)) |
| --- | --- | --- |
| CC(NC(=O)c1cc2cc(Cl)ccc2[nH]1)c1ncco1 (stereo not drawn) [Compound 104] | ++ (++ = pIC50 5.00-<5.50) | + (+ = pIC50 4.50-<5.00) |
| C[C@@H](NC(=O)c1cc2cccc(F)c2[nH]1)c1ccccc1 [Compound 61] | +++ (+++ = pIC50 ≥5.50) | +++ (+++ = pIC50 ≥5.50) |
| O=C(Nc1cccc2[nH]ncc12)c1cc2cc(F)ccc2[nH]1 [Compound 1] | ++ (++ = pIC50 5.00-<5.50) | − (− = pIC50 <4.50) |
| Cn1ccc(C2(NC(=O)c3cc4cc(Cl)ccc4[nH]3)CC2)n1 [Compound 224] | ++ (++ = pIC50 5.00-<5.50) | ++ (++ = pIC50 5.00-<5.50) |
| O=C(NCc1ccc(F)cc1Cl)c1cc2ccccc2[nH]1 [Compound 31] | + (+ = pIC50 4.50-<5.00) | − (− = pIC50 <4.50) |
| O=C(Nc1cccc2ncccc12)c1cc2ccc(F)cc2[nH]1 [Compound 64] | ++ (++ = pIC50 5.00-<5.50) | ++ (++ = pIC50 5.00-<5.50) |
| CC(NC(=O)c1cc2cc(Br)ccc2[nH]1)c1cnn(C)c1 (stereo not drawn) [Compound 254] | +++ (+++ = pIC50 ≥5.50) | − (− = pIC50 <4.50) |
| O=C(NC1(c2ccccc2)CC1)c1cc2ccc(C(F)F)cc2[nH]1 [Compound 189] | ++ (++ = pIC50 5.00-<5.50) | − (− = pIC50 <4.50) |
| CC(NC(=O)c1cc2cc(Cl)ccc2[nH]1)c1nc(-c2ccccc2)no1 (stereo not drawn) [Compound 121] | +++ (+++ = pIC50 ≥5.50) | − (− = pIC50 <4.50) |
| CC(NC(=O)c1cc2cc(Cl)ccc2[nH]1)c1cnn(C)c1 (stereo not drawn) [Compound 133] | +++ (+++ = pIC50 ≥5.50) | − (− = pIC50 <4.50) |
| COCCN(C)C(=O)c1ccc(C(C)NC(=O)c2cc3cc(Cl)ccc3[nH]2)cc1 (stereo not drawn) [Compound 93] | +++ (+++ = pIC50 ≥5.50) | + (+ = pIC50 4.50-<5.00) |
| O=C(NC1(c2ccccc2)CC1)c1cc2cc(Br)ccc2[nH]1 [Compound 253] | +++ (+++ = pIC50 ≥5.50) | − (− = pIC50 <4.50) |
| CC(NC(=O)c1cc2cccnc2[nH]1)c1ccccc1 (stereo not drawn) [Compound 80] | ++ (++ = pIC50 5.00-<5.50) | − (− = pIC50 <4.50) |
| O=S(=O)(NCc1cc2cc(F)ccc2[nH]1)c1ccccc1 [Compound 57] | − (− = pIC50 <4.50) | + (+ = pIC50 4.50-<5.00) |
| CC(NC(=O)c1cc2cc(Cl)ccc2[nH]1)c1ccn(-c2ccccc2)n1 (stereo not drawn) [Compound 173] | +++ (+++ = pIC50 ≥5.50) | − (− = pIC50 <4.50) |
| O=C(NC1CCCCC1O)c1cc2cc(Cl)ccc2[nH]1 (stereo not drawn) [Compound 119] | + (+ = pIC50 4.50-<5.00) | − (− = pIC50 <4.50) |

— patent publication US10167257B2, “Indole derivatives for use in medicine” (IOmet Pharma Ltd., priority 2014, dated 2019)
